Source: patent publication US10947213B1 (Merck Patent GmbH, priority 2015, dated 2021)
Where a name gives a salt, the structure may show the parent alone.

Target: T1, TLR7/NFKb HEK cells (Homo sapiens, UniProt Q9NYK1)
T1 construct: expressed in transfected cells; host or cells: HEK cells (TLR7/NFKb reporter line)
T1 sequence (Q9NYK1 27-1049): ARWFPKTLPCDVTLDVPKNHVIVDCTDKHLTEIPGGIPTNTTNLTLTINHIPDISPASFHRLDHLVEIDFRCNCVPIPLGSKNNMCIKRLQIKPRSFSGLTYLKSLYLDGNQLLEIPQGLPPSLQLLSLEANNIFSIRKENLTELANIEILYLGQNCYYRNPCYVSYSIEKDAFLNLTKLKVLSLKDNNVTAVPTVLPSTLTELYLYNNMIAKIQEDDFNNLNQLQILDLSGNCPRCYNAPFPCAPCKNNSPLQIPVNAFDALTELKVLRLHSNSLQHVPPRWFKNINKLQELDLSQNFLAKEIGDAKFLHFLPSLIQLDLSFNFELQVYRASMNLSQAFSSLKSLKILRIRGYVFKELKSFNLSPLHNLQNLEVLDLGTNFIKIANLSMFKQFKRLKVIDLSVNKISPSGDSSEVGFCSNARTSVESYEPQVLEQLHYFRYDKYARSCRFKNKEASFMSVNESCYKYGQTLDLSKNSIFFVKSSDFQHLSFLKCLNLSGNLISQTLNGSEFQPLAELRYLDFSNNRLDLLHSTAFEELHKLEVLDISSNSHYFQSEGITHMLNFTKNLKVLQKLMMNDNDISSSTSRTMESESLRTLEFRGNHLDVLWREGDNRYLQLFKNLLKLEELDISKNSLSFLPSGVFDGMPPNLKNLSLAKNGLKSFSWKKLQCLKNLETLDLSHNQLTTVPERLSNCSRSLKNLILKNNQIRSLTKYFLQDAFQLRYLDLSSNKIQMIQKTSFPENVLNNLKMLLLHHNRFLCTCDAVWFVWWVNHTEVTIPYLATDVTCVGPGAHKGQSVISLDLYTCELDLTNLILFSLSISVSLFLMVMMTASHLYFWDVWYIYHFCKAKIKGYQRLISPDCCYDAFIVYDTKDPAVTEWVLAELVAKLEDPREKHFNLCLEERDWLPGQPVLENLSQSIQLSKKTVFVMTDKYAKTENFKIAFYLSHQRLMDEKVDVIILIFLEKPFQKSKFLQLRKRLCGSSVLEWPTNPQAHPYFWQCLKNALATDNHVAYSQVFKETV
Assay: HEK Cell Assay (TLR7/NFKb reporter, Steady-Glo luciferase readout)
Assay type: cell-based
Conditions: 30 min compound preincubation, then R*48 agonist for 5 hours, read-out: Potency
How it was run: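 Steady-Glo luminescence after 5 h stimulation with R*48 agonist, following 30 min compound preincubation. Assay run in HEK cells carrying a TLR7/NFKb luciferase reporter, plated at 5000 cells/well and grown 24 h at 37° C (10% CO2) before treatment.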

Structure (SMILES)	IC50 [nM]
COCCN[C@@H]1C[C@H](C)CN(c2ccnc3nccnc23)C1 [Compound 18, (3R,5S)—N-(2-methoxyethyl)-5-methyl-1-(pyrido[2,3-b]pyrazin-8-yl)piperidin-3-amine]	> 10000
COCCN[C@@H]1C[C@H](C)CN(c2ccc(C#N)c3nccnc23)C1 [Compound 19, 8-((3R,5S)-3-(2-methoxyethylamino)-5-methylpiperidin-1-yl)quinoxaline-5-carbonitrile]	< 1000
CC(C)[C@H](O)C(=O)N[C@@H]1C[C@H](C)CN(c2ccc(C#N)c3nccnc23)C1 [Compound 20, (S)—N-((3R,5S)-1-(8-cyanoquinoxalin-5-yl)-5-methylpiperidin-3-yl)-2-hydroxy-3-methylbutanamide]	< 1000
CC(C)[C@@H](O)C(=O)N[C@@H]1C[C@H](C)CN(c2ccc(C#N)c3nccnc23)C1 [Compound 21, (R)—N-((3R,5S)-1-(8-cyanoquinoxalin-5-yl)-5-methylpiperidin-3-yl)-2-hydroxy-3-methylbutanamide]	< 1000
CC(C)[C@H](O)C(=O)N[C@@H]1C[C@H](C)CN(c2ccnc3nccnc23)C1 [Compound 22, (S)-2-hydroxy-3-methyl-N-((3R,5S)-5-methyl-1-(pyrido[2,3-b]pyrazin-8-yl)piperidin-3-yl)butanamide]	1000 to 10000
CC(C)[C@@H](O)C(=O)N[C@@H]1C[C@H](C)CN(c2ccnc3nccnc23)C1 [Compound 23, (R)-2-hydroxy-3-methyl-N-((3R,5S)-5-methyl-1-(pyrido[2,3-b]pyrazin-8-yl)piperidin-3-yl)butanamide]	> 10000
C[C@H]1C[C@@H](NC(=O)[C@@H](C)N)CN(c2ccc(C#N)c3nccnc23)C1 [Compound 24, (R)-2-amino-N-((3R,5S)-1-(8-cyanoquinoxalin-5-yl)-5-methylpiperidin-3-yl)propanamide]	< 1000
C[C@H]1C[C@@H](NC(=O)[C@H](C)N)CN(c2ccc(C#N)c3nccnc23)C1 [Compound 25, (S)-2-amino-N-((3R,5S)-1-(8-cyanoquinoxalin-5-yl)-5-methylpiperidin-3-yl)propanamide]	< 1000
C[C@H]1C[C@@H](NC(=O)[C@@H](C)N)CN(c2ccnc3nccnc23)C1 [Compound 26, (R)-2-amino-N-((3R,5S)-5-methyl-1-(pyrido[2,3-b]pyrazin-8-yl)piperidin-3-yl)propanamide]	1000 to 10000
C[C@H]1C[C@@H](NC(=O)[C@H](C)N)CN(c2ccnc3nccnc23)C1 [Compound 27, (S)-2-amino-N-((3R,5S)-5-methyl-1-(pyrido[2,3-b]pyrazin-8-yl)piperidin-3-yl)propanamide]	1000 to 10000
CNCC(=O)N[C@@H]1C[C@H](C)CN(c2ccc(C#N)c3nccnc23)C1 [Compound 28, N-((3R,5S)-1-(8-cyanoquinoxalin-5-yl)-5-methylpiperidin-3-yl)-2-(methylamino)acetamide hydrochloride]	< 1000
CNCC(=O)N[C@@H]1C[C@H](C)CN(c2ccnc3nccnc23)C1 [Compound 29, N-((3R,5S)-5-methyl-1-(pyrido[2,3-b]pyrazin-8-yl)piperidin-3-yl)-2-(methylamino)acetamide]	> 10000
C[C@H]1C[C@@H](NC(=O)C2(N)CC2)CN(c2ccnc3nccnc23)C1 [Compound 30, 1-amino-N-((3R,5S)-5-methyl-1-(pyrido[2,3-b]pyrazin-8-yl)piperidin-3-yl)cyclopropanecarboxamide hydrochloride]	> 10000
C[C@H]1C[C@@H](NC(=O)C2(N)CC2)CN(c2ccc(C#N)c3nccnc23)C1 [Compound 31, 1-amino-N-((3R,5S)-1-(8-cyanoquinoxalin-5-yl)-5-methylpiperidin-3-yl)cyclopropanecarboxamide hydrochloride]	1000 to 10000
C[C@H]1C[C@@H](NC(=O)CN(C)C)CN(c2ccc(C#N)c3nccnc23)C1 [Compound 32, N-((3R,5S)-1-(8-cyanoquinoxalin-5-yl)-5-methylpiperidin-3-yl)-2-(dimethylamino)acetamide]	< 1000
C[C@H]1C[C@@H](NC(=O)CN(C)C)CN(c2ccnc3nccnc23)C1 [Compound 33, 2-(dimethylamino)-N-((3R,5S)-5-methyl-1-(pyrido[2,3-b]pyrazin-8-yl)piperidin-3-yl)acetamide]	1000 to 10000
C[C@H]1C[C@@H](NC(=O)CN)CN(c2ccnc3nccnc23)C1 [Compound 34, 2-amino-N-((3R,5S)-5-methyl-1-(pyrido[2,3-b]pyrazin-8-yl)piperidin-3-yl)acetamide]	> 10000

Structure (SMILES)	IC50 [nM]
C[C@H]1C[C@@H](NC(=O)CN)CN(c2ccc(C#N)c3nccnc23)C1 [Compound 35, 2-amino-N-((3R,5S)-1-(8-cyanoquinoxalin-5-yl)-5-methylpiperidin-3-yl)acetamide hydrochloride]	< 1000
C[C@H]1C[C@@H](NC(=O)C2(C)COC2)CN(c2ccc(C#N)c3nccnc23)C1 [Compound 36, N-((3R,5S)-1-(8-cyanoquinoxalin-5-yl)-5-methylpiperidin-3-yl)-3-methyloxetane-3-carboxamide]	1000 to 10000
C[C@H]1C[C@@H](NC(=O)C2(C)COC2)CN(c2ccnc3nccnc23)C1 [Compound 37, 3-methyl-N-((3R,5S)-5-methyl-1-(pyrido[2,3-b]pyrazin-8-yl)piperidin-3-yl)oxetane-3-carboxamide]	> 10000
C[C@H]1C[C@@H](NCC#N)CN(c2ccc(C#N)c3nccnc23)C1 [Compound 38, 8-((3R,5S)-3-(cyanomethylamino)-5-methylpiperidin-1-yl)quinoxaline-5-carbonitrile]	< 1000
C[C@H]1C[C@@H](NCC#N)CN(c2ccnc3nccnc23)C1 [Compound 39, 2-((3R,5S)-5-methyl-1-(pyrido[2,3-b]pyrazin-8-yl)piperidin-3-ylamino)acetonitrile hydrochloride]	1000 to 10000
C[C@H]1C[C@@H](NC(=O)CC(C)(C)C)CN(c2ccc(C#N)c3nccnc23)C1 [Compound 40, N-((3R,5S)-1-(8-cyanoquinoxalin-5-yl)-5-methylpiperidin-3-yl)-3,3-dimethylbutanamide]	< 1000
C[C@H]1C[C@@H](NC(=O)CC(C)(C)C)CN(c2ccnc3nccnc23)C1 [Compound 41, 3,3-dimethyl-N-((3R,5S)-5-methyl-1-(pyrido[2,3-b]pyrazin-8-yl)piperidin-3-yl)butanamide]	1000 to 10000
C[C@H]1C[C@@H](N2CC[C@@H](N)C2=O)CN(c2ccnc3nccnc23)C1 [Compound 42, (3R)-3-amino-1-[(3R,5S)-5-methyl-1-[pyrido[2,3-b]pyrazin-8-yl]piperidin-3-yl]pyrrolidin-2-one]	> 10000
C[C@@H]1CN(c2ccnc3nccnc23)C[C@H](C)O1 [Compound 43, (2S,6R)-2,6-dimethyl-4-(pyrido[2,3-b]pyrazin-8-yl)morpholine]	> 10000
C[C@@H]1CN(c2ccc(C#N)c3nccnc23)C[C@H](C)O1 [Compound 44, 8-((2R,6S)-2,6-dimethylmorpholino)quinoxaline-5-carbonitrile]	< 1000
C[C@@H]1CN(c2ccnc3ccccc23)C[C@H](C)O1 [Compound 45, (2S,6R)-2,6-dimethyl-4-(quinolin-4-yl)morpholine]	> 10000
Cc1cc2c(N3C[C@@H](C)O[C@@H](C)C3)ccnc2n1C [Compound 46, (2S,6R)-4-(1,2-dimethyl-1H-pyrrolo[2,3-b]pyridin-4-yl)-2,6-dimethylmorpholine]	> 10000
C[C@@H]1CN(c2ccnc3nccnc23)C[C@H](CN2CCN(C)CC2)O1 [Compound 47, (2R,6S)-2-methyl-6-((4-methylpiperazin-1-yl)methyl)-4-(pyrido[2,3-b]pyrazin-8-yl)morpholine]	1000 to 10000
C[C@@H]1CN(c2ccnc3nccnc23)C[C@H](CN2CCNCC2)O1 [Compound 48, (2R,6S)-2-methyl-6-(piperazin-1-ylmethyl)-4-(pyrido[2,3-b]pyrazin-8-yl)morpholine]	1000 to 10000
C[C@@H]1CN(c2ccc(C#N)c3nccnc23)C[C@H](CN2CCN(C)CC2)O1 [Compound 50, 8-((2R,6S)-2-methyl-6-((4-methylpiperazin-1-yl)methyl)morpholino)quinoxaline-5-carbonitrile]	< 1000
CCCN1CCN(C[C@H]2CN(c3ccnc4nccnc34)C[C@@H](C)O2)CC1 [Compound 52, (2R,6S)-2-methyl-6-((4-propylpiperazin-1-yl)methyl)-4-(pyrido[2,3-b]pyrazin-8-yl)morpholine]	< 1000
